# Laboratory results reported in patent US20260272964A1, “PENTAGALLOYL GLUCOSE DERIVED FROM SCHINUS PLANTS AND METHODS OF USE” (Emory University, priority 2020, published 2026).
# Several values for one entry are separate records, joined by “and”; a condition that tells them apart may be missing. Equal entries are not always repeated. Entries after “also recorded” stand apart in the source; their conditions may differ. Where two headings read alike, the source gives them in different places.
# Columns and labels:
# ESKAPE pathogens = experiment: Growth inhibition of a panel of ESKAPE pathogens (overall); format: cell-based
# Description: (§1) PGG was also tested against a panel of other ESKAPE pathogens: Enterococcus faecium, Staphylococcus aureus, Klebsiella pneumoniae, Pseudomonas aeruginosa, and Enterobacter cloacae.
# A. baumannii = experiment: Growth inhibition assays with media supplementation; format: cell-based, Acinetobacter baumannii
# Description: PGG antibacterial activity may be attributed to its chelation of iron. One can use a colorimetric assay to quantify binding of free iron by PGG. One can perform bioassays with iron supplementation and 2,2′-dipyridyl, a known iron chelator, as a control. To elucidate potential mechanisms of action of PGG, A. baumannii growth inhibition and time-kill assays were carried out with various supplements in combination with PGG: 0.02% oleic acid, 0.02% polysorbate 80, 1 mM iron (II) sulfate, and 1 mM iron (III) sulfate. […] Furthermore, PGG combined with oleic acid, polysorbate 80, and iron (II) sulfate treatments had roughly tenfold, 100-fold, and 1,000-fold higher CFU/mL measurements, respectively, than PGG alone at the 24 h timepoint.
# A. baumannii AB5075 [1] = experiment: Biofilm formation inhibition and biofilm eradication; format: cell-based, Acinetobacter baumannii
# Text: However, there was no significant difference between PGG and control with regards to biofilm promotion or inhibition at any concentration tested and no dose-response trend was noted.
# Candida species = experiment: Growth inhibition of a panel of Candida strains; format: cell-based
# Description: The activity of PGG was tested for growth inhibition against two susceptible strains and 6 drug resistant strains from three Candida species (Table 2). […] The activity of PGG followed a dose-response curve against tested strains. Typically the strains tested had MICs less than 2 μg/mL. Candida glabrata (AR Bank #0335) yielded the highest MIC at 8 μg/mL.
# Staphylococcus aureus = experiment: Growth inhibition of ESKAPE pathogens; format: cell-based; conditions: strain LAC
# Description: as §1
# Enterobacter cloacae = experiment: Growth inhibition of ESKAPE pathogens; format: cell-based
# Description: as §1
# Pseudomonas aeruginosa = experiment: Growth inhibition of ESKAPE pathogens; format: cell-based
# Description: as §1
# A. baumannii AB5075 [2] = experiment: Resistance studies (agar plates and 21-day serial passaging); format: cell-based, Acinetobacter baumannii
# Description: To test for spontaneous development of resistance to PGG, A. baumannii AB5075 was inoculated on agar plates containing PGG at 0.5×MIC, 1×MIC, and 2×MIC (128, 256, and 512 μg/mL, respectively), and a control plate containing no PGG. […] Next, evolution of resistance was tested by serial passaging A. baumannii AB5075 for 21 days in the presence of a PGG gradient, using culture from the 0.5×MIC treatment for each subsequent passage. Serial passaging with a tetracycline gradient served as a control.
# [3] = test system: Immortalized human keratinocyte cells (HaCaTs); experiment: Lactate dehydrogenase (LDH) cytotoxicity assay; format: cell-based; conditions: HaCaT IC50 over median IC50 for growth inhibition of A. baumannii
# Text: (§2) Immortalized human keratinocyte cells (HaCaTs) were used in a lactate dehydrogenase (LDH) assay to assess cytotoxicity by PGG and its parents.
# [4] = Lactate dehydrogenase (LDH) cytotoxicity assay; format: cell-based, human; conditions: human; HaCaT, LDH assay
# Text: as §2
structure (smiles),measurement,setting,value
"O=C(OC[C@H]1O[C@@H](OC(=O)c2cc(O)c(O)c(O)c2)[C@H](OC(=O)c2cc(O)c(O)c(O)c2)[C@@H](OC(=O)c2cc(O)c(O)c(O)c2)[C@@H]1OC(=O)c1cc(O)c(O)c(O)c1)c1cc(O)c(O)c(O)c1 [PGG, [(2R,3R,4S,5R,6S)-3,4,5,6-tetrakis[(3,4,5-trihydroxybenzoyl)oxy]oxan-2-yl]methyl 3,4,5-trihydroxybenzoate]",concentrations with activity against a wide range of pathogenic bacteria,ESKAPE pathogens,≥ 64 µg/mL
same,change of growth inhibition on supplementation,A. baumannii; PGG 256-2 μg/mL with 1 mM iron (II) sulfate,attenuated growth inhibition
same,change of growth inhibition on supplementation,A. baumannii; PGG 256-2 μg/mL with 1 mM iron (III) sulfate,attenuated growth inhibition
same,change of growth inhibition on supplementation,A. baumannii; PGG 256-2 μg/mL with 0.02% oleic acid,no change in activity
same,change of growth inhibition on supplementation,A. baumannii; PGG 256-2 μg/mL with 0.02% polysorbate 80,attenuated growth inhibition
same,biofilm formation inhibition,"A. baumannii AB5075 [1]; AB5075, 0.5-64 μg/mL (sub-MIC)",did not exhibit any antibiofilm activity
same,biofilm eradication,"A. baumannii AB5075 [1]; AB5075, 2-256 μg/mL",did not exhibit any antibiofilm activity
same,biofilm formation relative to vehicle (DMSO) control,"A. baumannii AB5075 [1]; AB5075, 8-64 μg/mL, not significant",mild promotion of biofilm formation
same,MIC,"Candida species; Candida strains tested, read-out: MICs typical of the strains tested",< 2 µg/mL
same,IC50,"Candida species; two susceptible and 6 drug resistant strains from three Candida species, read-out: IC50 values, range over strains",0.25 µg/mL to 2 µg/mL and 260 nM to 2.1 µM
same,IC50,Staphylococcus aureus; read-out: PGG IC50,16 µg/mL
same,MIC,Staphylococcus aureus; read-out: PGG MIC,64 µg/mL
same,MIC,Enterobacter cloacae; read-out: PGG MIC,> 256 µg/mL
same,IC50,"Enterobacter cloacae; strain AR Bank #0032, read-out: PGG IC50",64 µg/mL
same,MIC,"Pseudomonas aeruginosa; P. aeruginosa, strain not given, read-out: MIC",16 µg/mL
same,IC50,"Pseudomonas aeruginosa; strain AR Bank #0054, read-out: PGG IC50",8 µg/mL
same,MIC,"Pseudomonas aeruginosa; strain AR Bank #0054, read-out: PGG MIC",> 64 µg/mL
same,IC50,"Pseudomonas aeruginosa; strain AR Bank #0064, read-out: PGG IC50",4 µg/mL
same,MIC,"Pseudomonas aeruginosa; strain AR Bank #0064, read-out: PGG MIC",16 µg/mL
same,IC50,"Pseudomonas aeruginosa; strain AR Bank #0090, read-out: PGG IC50",4 µg/mL
same,MIC,"Pseudomonas aeruginosa; strain AR Bank #0090, read-out: PGG MIC",> 64 µg/mL
same,IC50,"Pseudomonas aeruginosa; strain AR Bank #0092, read-out: PGG IC50",4 µg/mL
same,MIC,"Pseudomonas aeruginosa; strain AR Bank #0092, read-out: PGG MIC",> 64 µg/mL
same,IC50,"Pseudomonas aeruginosa; strain AR Bank #0094, read-out: PGG IC50",8 µg/mL
same,MIC,"Pseudomonas aeruginosa; strain AR Bank #0094, read-out: PGG MIC",64 µg/mL
same,IC50,"Pseudomonas aeruginosa; strain AR Bank #0095, read-out: PGG IC50",8 µg/mL
same,MIC,"Pseudomonas aeruginosa; strain AR Bank #0095, read-out: PGG MIC",64 µg/mL
same,IC50,"Pseudomonas aeruginosa; strain AR Bank #0100, read-out: PGG IC50",8 µg/mL
same,MIC,"Pseudomonas aeruginosa; strain AR Bank #0100, read-out: PGG MIC",> 64 µg/mL
same,IC50,"Pseudomonas aeruginosa; strain AR Bank #0103, read-out: PGG IC50",4 µg/mL
same,MIC,"Pseudomonas aeruginosa; strain AR Bank #0103, read-out: PGG MIC",64 µg/mL
same,IC50,"Pseudomonas aeruginosa; strain AR Bank #0105, read-out: PGG IC50",32 µg/mL
same,MIC,"Pseudomonas aeruginosa; strain AR Bank #0105, read-out: PGG MIC",> 64 µg/mL
same,IC50,"Pseudomonas aeruginosa; strain AR Bank #0108, read-out: PGG IC50",8 µg/mL
same,MIC,"Pseudomonas aeruginosa; strain AR Bank #0108, read-out: PGG MIC",> 64 µg/mL
same,IC50,"Pseudomonas aeruginosa; strain AR Bank #0110, read-out: PGG IC50",4 µg/mL
same,MIC,"Pseudomonas aeruginosa; strain AR Bank #0110, read-out: PGG MIC",64 µg/mL
same,IC50,"Pseudomonas aeruginosa; strain AR Bank #0111, read-out: PGG IC50",4 µg/mL
same,MIC,"Pseudomonas aeruginosa; strain AR Bank #0111, read-out: PGG MIC",64 µg/mL
same,IC50,"Pseudomonas aeruginosa; strain PA01, read-out: PGG IC50",8 µg/mL
same,MIC,"Pseudomonas aeruginosa; strain PA01, read-out: PGG MIC",16 µg/mL
same,evolution of resistance on serial passaging,"A. baumannii AB5075 [2]; A. baumannii AB5075, 21 daily passages from the 0.5×MIC treatment",did not produce any resistant mutants; also recorded: remained stable; also recorded: did not stimulate any spontaneous resistance
same,spontaneous development of resistance (colonies on agar plates),"A. baumannii AB5075 [2]; A. baumannii AB5075, agar with 128, 256 and 512 μg/mL, 24 h",no colonies appeared
same,MIC,"A. baumannii AB5075 [2]; Acinetobacter baumannii, AB5075, read-out: Base MIC",256 µg/mL
same,therapeutic index,[3],32
same,IC50,[4],256 µg/mL
